Experimental findings from US20260078130A1, “NAMPT MODULATORS, PREPARATIONS, AND USES THEREOF” (SIRONAX LTD., priority 2022, published 2026) are described below.

Where two headings read alike, the source gives them in different places.

The target of assay [1] is T1, human enzyme NAMPT (full length) (Homo sapiens, UniProt P43490).
T1 construct: human enzyme NAMPT (full length)
The assay can be described thus: NMN fluorescence biochemical assay (stimulation of NMN synthesis by NAMPT). As to conditions: for EC50: concentration giving half-maximal activation, read-out: Enzymatic EC50; for Enzymatic Emax: fold change of maximal activation compared to DMSO. Put shortly:
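Full-length human NAMPT (100 nM) was preincubated 15 min at 37 °C with compound in 50 mM Tris-HCl pH 7.5, 10 mM MgCl2, 2 mM DTT, then reacted 1 h at 37 °C with 50 μM NAM, 100 μM PRPP, 4 mM ATP (stated solution concentrations). NMN was derivatised with acetophenone/KOH then formic acid and read at Ex/Em 382/445 nm; EC50 and Emax (fold over DMSO) reported.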

In assay [2] the test system is endogenous NAMPT in U2OS cells. The assay can be described thus: Cellular NAD+ modulation assay (NAD/NADH-Glo, U2OS cells). As to conditions: Homo sapiens; for maximal fold induction: read-out: Cellular Emax. It counts as cell-based. Put shortly:
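Endogenous NAMPT stimulation in U2OS cells treated with compound dilution series for 24 h at 37 °C. Cells lysed with DTAB base, acid-treated 15 min at 60 °C, neutralized, NAD+ read by NAD/NADH-Glo luminescence after 40 min at room temperature. EC50 and Emax (fold over DMSO) derived.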

Where [3] appears, read: NMN fluorescence assay, purified human NAMPT 100 nM.
[4] abbreviates: 24 hours incubation, cellular NAD+.
The mark [5] stands for this setting: NMN synthesis by purified human NAMPT (100 nM).
The mark [6] stands for this setting: 24 hours incubation with compound.

T1 sequence (P43490 whole entry): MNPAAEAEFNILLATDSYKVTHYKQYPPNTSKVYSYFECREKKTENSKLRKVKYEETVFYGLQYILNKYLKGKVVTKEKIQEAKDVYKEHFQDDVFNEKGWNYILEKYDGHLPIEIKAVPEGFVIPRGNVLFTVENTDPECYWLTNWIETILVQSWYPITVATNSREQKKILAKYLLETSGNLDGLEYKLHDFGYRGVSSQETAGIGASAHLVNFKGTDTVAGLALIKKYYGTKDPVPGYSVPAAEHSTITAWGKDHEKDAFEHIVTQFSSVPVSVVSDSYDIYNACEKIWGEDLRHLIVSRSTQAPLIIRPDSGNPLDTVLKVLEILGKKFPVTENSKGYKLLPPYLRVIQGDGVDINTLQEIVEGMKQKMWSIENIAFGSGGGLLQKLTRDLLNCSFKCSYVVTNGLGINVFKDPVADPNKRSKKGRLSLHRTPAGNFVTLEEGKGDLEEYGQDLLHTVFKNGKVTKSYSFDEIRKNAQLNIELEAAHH

Consider `CN1CC(c2ccc3c(c2)C(Cc2c(Cl)cnn2C)N(Cc2ccc4[nH]nnc4c2)C3=O)C1` (stereo not shown) [Compound 385, 2-((1H-benzo[d][1,2,3]triazol-5-yl)methyl)-3-((4-chloro-1-methyl-1H-pyrazol-5-yl)methyl)-5-(1-methylazetidin-3-yl)isoindolin-1-one], for which the EC50 in assay [1] (setting [3]) was in the range of 0.5 to 5 µM. Besides, the “Enzymatic Emax” value in assay [1] was “B (3≥B>2)”. In assay [2] (setting [4]), the half-maximal effective concentration (EC50) lay within 5 to 50 µM and the maximal fold induction is greater than 1.5.
With `Cc1ccc2c(c1)C(=O)N(Cc1ccc(O)cc1)C2=O` [Compound 14, 2-(4-hydroxybenzyl)-5-methylisoindoline-1,3-dione], the EC50 in assay [1] (setting [5]) and in assay [2] (setting [6]) was 0.5 to 5 µM throughout. In addition, the “Enzymatic Emax” value in assay [1] is “B (3≥B>2)”. For the same compound, the maximal fold induction in assay [2] (setting [6]) fell in the range of 1.2 to 1.5.
For `Cn1c2ccccc2c(=O)n1Cc1ccc2[nH]c(=O)oc2c1` [Compound 46, 6-((1-methyl-3-oxo-1,3-dihydro-2H-indazol-2-yl)methyl)benzo[d]oxazol-2(3H)-one], the concentration for a half-maximal effect (EC50) in assay [1] (setting [5]) is no less than 5 µM. The “Enzymatic Emax” value in assay [1] is given as “B (3≥B>2)”. In assay [2] (setting [6]), the concentration for a half-maximal effect (EC50) fell in the range of 5 to 50 µM and the maximal fold induction is greater than 1.5.
Take `COc1ccc(CN2C(=O)c3ccccc3C2Cc2c(Cl)cnn2C)cc1F` (stereo not shown) [Compound 517, 3-((4-chloro-1-methyl-1H-pyrazol-5-yl)methyl)-2-(3-fluoro-4-methoxybenzyl)isoindolin-1-one]: the concentration giving a half-maximal response (EC50) in assay [1] (setting [3]) fell in the range of 0.5 to 5 µM. Further, in assay [1], the “Enzymatic Emax” value is “B (3≥B>2)”. Moreover, in assay [2] (setting [4]), the half-maximal effective concentration (EC50) is less than 0.5 µM and the maximal fold induction is 1.2 to 1.5.
Turning to `O=C1c2ccncc2CN1Cc1ccc(O)cc1` [Compound 43, 2-(4-hydroxybenzyl)-2,3-dihydro-1H-pyrrolo[3,4-c]pyridin-1-one], the EC50 in assay [1] (setting [5]) was no less than 5 µM. For the same compound, the “Enzymatic Emax” value in assay [1] was “A (A>3)”. In assay [2] (setting [6]), the EC50 lay within 5 to 50 µM and the maximal fold induction lay in the range of 1.2 to 1.5.
For the compound `COc1ccc(CN2C(=O)c3c(F)cc(Cl)cc3C2Cc2c(Cl)cnn2C)cc1` (stereo not shown) [Compound 581, 5-chloro-3-((4-chloro-1-methyl-1H-pyrazol-5-yl)methyl)-7-fluoro-2-(4-methoxybenzyl)isoindolin-1-one], the EC50 in assay [1] (setting [3]) and in assay [2] (setting [4]) was 0.5 to 5 µM each time. The “Enzymatic Emax” value in assay [1] is “A (A>3)”. Further, the maximal fold induction in assay [2] (setting [4]) is 1.2 to 1.5.
On to `COc1ccc(CN2C(=O)c3ccc(C4CC4)cc3C2Cc2c(C)ncnc2C#N)cc1` (stereo not shown) [Compound 638, 5-((6-cyclopropyl-2-(4-methoxybenzyl)-3-oxoisoindolin-1-yl)methyl)-6-methylpyrimidine-4-carbonitrile], for which the EC50 in assay [1] (setting [3]) is 0.5 to 5 µM; in assay [2] (setting [4]), less than 0.5 µM. Further, the “Enzymatic Emax” value in assay [1] is “A (A>3)”. In addition, the maximal fold induction in assay [2] (setting [4]) was 1.2 to 1.5.
As for `N#Cc1ccc(CC2c3ccccc3C(=O)N2Cc2ccc3[nH]c(=O)oc3c2)cc1` (stereo not shown) [Compound 148, 4-((3-oxo-2-((2-oxo-2,3-dihydrobenzo[d]oxazol-6-yl)methyl)isoindolin-1-yl)methyl) benzonitrile], the EC50 in assay [1] (setting [5]) lay in the range of 0.5 to 5 µM. For the same compound, the “Enzymatic Emax” value in assay [1] was “B (3≥B>2)”. Further, in assay [2] (setting [6]), the EC50 lay in the range of 0.5 to 5 µM and the maximal fold induction is greater than 1.5.
For the compound `CC(c1ccc(O)cc1)N1Cc2ccccc2C1=O` (stereo not shown) [Compound 45, 2-(1-(4-hydroxyphenyl)ethyl) isoindolin-1-one], the 50% effective concentration (EC50) in assay [1] (setting [5]) was no less than 5 µM; in assay [2] (setting [6]) it was 0.5 to 5 µM. The “Enzymatic Emax” value in assay [1] was “B (3≥B>2)”. For the same compound, the maximal fold induction in assay [2] (setting [6]) lay in the range of 1.2 to 1.5.
For `CC1c2cc(NC3CCOCC3)ccc2C(=O)N1Cc1ccc2[nH]c(=O)oc2c1` (stereo not shown) [Compound 95, 6-((3-methyl-1-oxo-5-((tetrahydro-2H-pyran-4-yl)amino)isoindolin-2-yl)methyl)benzo[d]oxazol-2(3H)-one], in assay [1] (setting [5]), the EC50 fell in the range of 0.5 to 5 µM. Besides, in assay [1], the “Enzymatic Emax” value is “B (3≥B>2)”. Moreover, in assay [2] (setting [6]), the 50% effective concentration (EC50) was in the range of 5 to 50 µM and the maximal fold induction is greater than 1.5.
For `COCCOc1nn(C)c(CC2c3ccccc3C(=O)N2Cc2ccc3[nH]nnc3c2)c1Cl` (stereo not shown) [Compound 371, 2-((1H-benzo[d][1,2,3]triazol-5-yl)methyl)-3-((4-chloro-3-(2-methoxyethoxy)-1-methyl-1H-pyrazol-5-yl)methyl)isoindolin-1-one], the EC50 in assay [1] (setting [3]) is less than 0.5 µM. Further, the “Enzymatic Emax” value in assay [1] was “B (3≥B>2)”. Moreover, in assay [2] (setting [4]), the half-maximal effective concentration (EC50) is less than 0.5 µM and the maximal fold induction was greater than 1.5.
For the compound `COc1ccc(CN2C(=O)c3ccc(Br)cc3C2Cc2c(Cl)cnn2C)cn1` (stereo not shown) [Compound 622, 5-bromo-3-((4-chloro-1-methyl-1H-pyrazol-5-yl)methyl)-2-((6-methoxypyridin-3-yl)methyl)isoindolin-1-one], the EC50 in assay [1] (setting [3]) was no less than 5 µM. In addition, in assay [1], the “Enzymatic Emax” value is recorded as “A (A>3)”. Also, in assay [2] (setting [4]), the 50% effective concentration (EC50) lay within 0.5 to 5 µM and the maximal fold induction is greater than 1.5.
In the same order, the values of `CC(C)(O)Cn1cc(Cl)c(CC2c3ccccc3C(=O)N2Cc2ccc3[nH]nnc3c2)n1` (stereo not shown) [Compound 411, 2-((1H-benzo[d][1,2,3]triazol-5-yl)methyl)-3-((4-chloro-1-(2-hydroxy-2-methylpropyl)-1H-pyrazol-3-yl)methyl)isoindolin-1-one] are less than 0.5 µM, “B (3≥B>2)”, less than 0.5 µM and greater than 1.5.
For the compound `Cc1cccc2c1C(Cc1c(Cl)ccnc1C#N)N(Cc1ccc3[nH]c(=O)oc3c1)C2=O` (stereo not shown) [Compound 272, 4-chloro-3-((7-methyl-3-oxo-2-((2-oxo-2,3-dihydrobenzo[d]oxazol-6-yl)methyl)isoindolin-1-yl)methyl)picolinonitrile], the 50% effective concentration (EC50) in assay [1] (setting [5]) was 0.5 to 5 µM. Also, in assay [1], the “Enzymatic Emax” value was “A (A>3)”. Moreover, in assay [2] (setting [6]), the concentration for a half-maximal effect (EC50) was less than 0.5 µM and the maximal fold induction is greater than 1.5.
Turning to `COCc1ccc2c(c1)C(Cc1c(Cl)cnn1C)N(Cc1ccc3[nH]nnc3c1)C2=O` (stereo not shown) [Compound 436, 2-((1H-benzo[d][1,2,3]triazol-5-yl)methyl)-3-((4-chloro-1-methyl-1H-pyrazol-5-yl)methyl)-5-(methoxymethyl)isoindolin-1-one], the 50% effective concentration (EC50) in assay [1] (setting [3]) and in assay [2] (setting [4]) was less than 0.5 µM throughout. Further, the “Enzymatic Emax” value in assay [1] is on record as “A (A>3)”. The maximal fold induction in assay [2] (setting [4]) was greater than 1.5.
As for `C#Cc1cccnc1CC1c2ccccc2C(=O)N1Cc1ccc2[nH]c(=O)oc2c1` (stereo not shown) [Compound 215, 6-((1-((3-ethynylpyridin-2-yl)methyl)-3-oxoisoindolin-2-yl)methyl)benzo[d]oxazol-2(3H)-one], the EC50 was 0.5 to 5 µM in assay [1] (setting [5]) and less than 0.5 µM in assay [2] (setting [6]). Further, the “Enzymatic Emax” value in assay [1] is “A (A>3)”. Besides, in assay [2] (setting [6]), the maximal fold induction was greater than 1.5.
In the case of `Cn1cnc(Cl)c1CC1c2ccccc2C(=O)N1CC1CC2(CNC(=O)O2)C1` (stereo not shown) [Compound 468, 2-((1-((4-chloro-1-methyl-1H-imidazol-5-yl)methyl)-3-oxoisoindolin-2-yl)methyl)-5-oxa-7-azaspiro[3.4]octan-6-one], the 50% effective concentration (EC50) in assay [1] (setting [3]) was in the range of 0.5 to 5 µM. The “Enzymatic Emax” value in assay [1] is reported as “B (3≥B>2)”. Moreover, in assay [2] (setting [4]), the concentration for a half-maximal effect (EC50) lay within 0.5 to 5 µM and the maximal fold induction is greater than 1.5.
Turning to `O=C1c2ccc(N3CCCC3)cc2CN1Cc1ccc2[nH]c(=O)oc2c1` [Compound 300, 6-((1-oxo-5-(pyrrolidin-1-yl)isoindolin-2-yl)methyl)benzo[d]oxazol-2(3H)-one], the EC50 was no less than 5 µM in assay [1] (setting [5]) and 5 to 50 µM in assay [2] (setting [6]). Moreover, the “Enzymatic Emax” value in assay [1] is “C (2≥C)”. For the same compound, the maximal fold induction in assay [2] (setting [6]) lay within 1.2 to 1.5.
In the case of `Cc1ccnc(C#N)c1CC1c2cccc(F)c2C(=O)N1Cc1ccc2[nH]nnc2c1` (stereo not shown) [Compound 356, 3-((2-((1H-benzo[d][1,2,3]triazol-5-yl)methyl)-4-fluoro-3-oxoisoindolin-1-yl)methyl)-4-methylpicolinonitrile], the EC50 in assay [1] (setting [3]) is less than 0.5 µM. Moreover, the “Enzymatic Emax” value in assay [1] was “A (A>3)”. Further, in assay [2] (setting [4]), the EC50 was less than 0.5 µM and the maximal fold induction is greater than 1.5.
On to `O=C1c2ccccc2C(Cc2ncccc2Br)N1CC#Cc1cn[nH]n1` (stereo not shown) [Compound 417, 2-(3-(2H-1,2,3-triazol-4-yl)prop-2-yn-1-yl)-3-((3-bromopyridin-2-yl)methyl) isoindolin-1-one], for which, in assay [1] (setting [3]), the concentration for a half-maximal effect (EC50) is less than 0.5 µM. Also, in assay [1], the “Enzymatic Emax” value is given as “B (3≥B>2)”. Besides, in assay [2] (setting [4]), the EC50 was less than 0.5 µM and the maximal fold induction was greater than 1.5.
As for `Cn1ncc(Cl)c1CC1c2ccccc2S(=O)(=O)N1CC1CC2(CNC(=O)O2)C1` (stereo not shown) [Compound 540, 2-((3-((4-chloro-1-methyl-1H-pyrazol-5-yl)methyl)-1,1-dioxidobenzo[d]isothiazol-2(3H)-yl)methyl)-5-oxa-7-azaspiro[3.4]octan-6-one], the half-maximal effective concentration (EC50) in assay [1] (setting [3]) and in assay [2] (setting [4]) was less than 0.5 µM each time. Besides, the “Enzymatic Emax” value in assay [1] was “B (3≥B>2)”. Also, the maximal fold induction in assay [2] (setting [4]) was greater than 1.5.
Regarding `Cc1ccccc1CC1c2ncccc2C(=O)N1Cc1ccc2[nH]c(=O)oc2c1` (stereo not shown) [Compound 151, 6-((7-(2-methylbenzyl)-5-oxo-5,7-dihydro-6H-pyrrolo[3,4-b]pyridin-6-yl)methyl)benzo[d]oxazol-2(3H)-one], the EC50 was no less than 5 µM in assay [1] (setting [5]) and 0.5 to 5 µM in assay [2] (setting [6]). Moreover, the “Enzymatic Emax” value in assay [1] is listed as “A (A>3)”. Also, in assay [2] (setting [6]), the maximal fold induction was greater than 1.5.
